Earlier results in patent US20150196488A1, “Topical Foam Composition” (priority 2009, published 2015).

Settings: alcohol, ethyl acetate, chloroform and toluene

**Q.** Which “solubility in organic solvents” value does the source give for `CO[C@H]1/C=C/O[C@@]2(C)Oc3c(C)c(O)c4c(O)c(c5c(nc6cc(C)ccn65)c4c3C2=O)NC(=O)/C(C)=C\C=C\[C@H](C)[C@H](O)[C@@H](C)[C@@H](O)[C@@H](C)[C@H](OC(C)=O)[C@@H]1C` [Rifaximin, (2S,16Z,18E,20S,21S,22R,23R,24R,25S,26S,27S,28E)-5,6,21,23,25-pentahydroxy-27-methoxy-2,4,11,16,20,22,24,26-octamethyl-2,7-(epoxypentadeca-[1,11,13]trienimino)benzofuro[4,5-e]pyrido[1,2-a]-benzimida-zole-1,15(2H)-dione,25-acetate] here?
**A.** The value was “soluble”.
